Data published in patent US9999616B2 (ZENITH EPIGENETICS LTD., priority 2013, dated 2018).

How the values were obtained:
[1] = tested on: c-myc in Human AML MV4-11 cells; assay: Inhibition of cMYC expression (mRNA, real-time PCR) in MV4-11 cells; type: cell-based; settings: 3 h treatment, cMYC mRNA by real-time PCR
Procedure, shortened: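 MV4-11 cells in IMDM with 10% FBS were treated with increasing compound concentrations (DMSO 0.1%) for 3 h at 37 °C, in triplicate. Isolated mRNA was quantified by one-step TaqMan RT-qPCR, cMYC Ct normalized to cyclophilin, and fold expression given relative to DMSO control.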

[2] = tested on: Human AML MV-4-11 cells; assay: Inhibition of cell proliferation in MV4-11 cells (CellTiter Aqueous One); type: cell-based; settings: MV4-11, 72 h
Procedure, shortened: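 MV4-11 cells, 5×10^4 per well in IMDM with 10% FBS, were exposed to increasing compound concentrations or 0.1% DMSO for 72 h at 37 °C in triplicate. Viability was read by MTS (CellTiter Aqueous One) absorbance at 490 nm after 3-4 h. IC50 was derived from background-corrected signal relative to DMSO.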

[3] = tested on: hIL-6 mRNA; assay: Inhibition of hIL-6 mRNA transcription in LPS-stimulated U937 macrophages; type: cell-based, Human; settings: Homo sapiens, U-937, PMA-differentiated U937 cells, 1 h pretreatment, LPS 3 h, read-out: IL-6 activity
Procedure, shortened: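 PMA-differentiated U937 macrophages (60 ng/mL PMA, 3 days) pretreated 1 h with compound in 0.1% DMSO, then stimulated with 1 ug/mL E. coli LPS for 3 h at 37° C. IL-6 mRNA quantified by one-step TaqMan qRT-PCR, normalized to cyclophilin; fold expression relative to control, triplicate wells.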

[4] = biological target: Brd4 bromodomain 1 (BRD4(1)) (Homo sapiens, UniProt O60885); assay: Inhibition of tetra-acetylated histone H4 binding to Brd4 bromodomain 1, measured by FRET (HTRF); design: made in house; host or cells: E. coli BL21(DE3); settings: 2 h at room temperature
Procedure, shortened: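 N-terminally His-tagged bromodomain (200 nM), expressed in E. coli and purified by Ni affinity and size exclusion, was incubated with biotinylated tetra-acetylated H4 peptide (25-50 nM), Eu-cryptate streptavidin and XL665 anti-His in HEPES pH 7.4 buffer with 0.2% DMSO. Reactions ran 2 h at room temperature. IC50 came from the 665/620 nm fluorescence decrease.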

Row | Structure (SMILES) | IC50 [1] [nM] | IC50 [2] [nM] | IC50 [3] [nM] | IC50 [4] [nM]
1 | Cc1nc2c(-c3ccc4nncn4c3)cc(-c3c(C)noc3C)cc2[nH]1 [Example Compound 156, 4-(4-([1,2,4]triazolo [4,3-a]pyridin-6-yl)-2-methyl-1H-benzo[d]imidazol-6-yl)-3,5-dimethyl isoxazole] | 300 to 3000 | 3000 to 30000 | 3000 to 30000 | ≤ 300
2 | Cc1nc2c(-c3cc(C(F)(F)F)ccc3F)cc(-c3c(C)noc3C)cc2[nH]1 [Example Compound 157, 4-(4-(2-fluoro-5-(trifluoro-methyl)phenyl)-2-methyl-1H-benzo[d]imidazol-6-yl)-3,5-dimethyl isoxazole] | 300 to 3000 | 300 to 3000 | 300 to 3000 | ≤ 300
3 | Cc1nc2c(CCc3ccccc3)cc(-c3c(C)noc3C)cc2[nH]1 [Example Compound 161, 3,5-dimethyl-4-(2-methyl-4-phenethyl-1H-benzo[d]imidazol-6-yl)isoxazole] | 300 to 3000 | 3000 to 30000 | 300 to 3000 | ≤ 300
4 | Cc1nc2c(-c3cc(C(F)(F)F)ccc3Cl)cc(-c3c(C)noc3C)cc2[nH]1 [Example Compound 162, 4-(4-(2-chloro-5-(trifluoro-methyl)phenyl)-2-methyl-1H-benzo[d]imidazol-6-yl)-3,5-dimethyl isoxazole] | 300 to 3000 | 300 to 3000 | 300 to 3000 | 300 to 3000
5 | Cc1nc2c(-c3cnc4ccccc4c3)cc(-c3c(C)noc3C)cc2[nH]1 [Example Compound 163, 3,5-dimethyl-4-(2-methyl-4-(quinolin-3-yl)-1H-benzo[d]imidazol-6-yl)isoxazole] | 300 to 3000 | 300 to 3000 | 300 to 3000 | ≤ 300
6 | Cc1nc2c(-c3cscc3C)cc(-c3c(C)noc3C)cc2[nH]1 [Example Compound 166, 3,5-dimethyl-4-(2-methyl-4-(4-methyl-thiophen-3-yl)-1H-benzo[d]imidazol-6-yl)isoxazole] | 300 to 3000 | 300 to 3000 | 300 to 3000 | ≤ 300
7 | Cc1nc2c(-c3c(C)cnn3C)cc(-c3c(C)noc3C)cc2[nH]1 [Example Compound 169, 4-(4-(1,4-dimethyl-1H-pyrazol-5-yl)-2-methyl-1H-benzo[d]imidazol-6-yl)-3,5-dimethyl isoxazole] | 300 to 3000 | 300 to 3000 | 300 to 3000 | ≤ 300
8 | Cc1nc2c(-c3sc(C)nc3C)cc(-c3c(C)noc3C)cc2[nH]1 [Example Compound 170, 4-(4-(2,4-dimethyl-thiazol-5-yl)-2-methyl-1H-benzo[d]imidazol-6-yl)-3,5-dimethyl isoxazole] | 300 to 3000 | 300 to 3000 | 300 to 3000 | ≤ 300
9 | COc1ccncc1Oc1cc(-c2c(C)noc2C)cc2[nH]c(C)nc12 [Example Compound 171, 4-(4-((4-methoxy-pyridin-3-yl)oxy)-2-methyl-1H-benzo[d]imidazol-6-yl)-3,5-dimethyl isoxazole] | 300 to 3000 | 300 to 3000 | 300 to 3000 | ≤ 300
10 | Cc1nc2c(Oc3cc(C#N)ccc3C)cc(-c3c(C)noc3C)cc2[nH]1 [Example Compound 172, 3-((6-(3,5-dimethyl-isoxazol-4-yl)-2-methyl-1H-benzo[d]imidazol-4-yl)oxy)-4-methyl benzonitrile] | 300 to 3000 | 300 to 3000 | 300 to 3000 | ≤ 300
11 | Cc1nc2c(N3CCOCC3)cc(-c3c(C)noc3C)cc2[nH]1 [Example Compound 173, 4-(6-(3,5-dimethyl-isoxazol-4-yl)-2-methyl-1H-benzo[d]imidazol-4-yl) morpholine] | 300 to 3000 | 300 to 3000 | 300 to 3000 | ≤ 300
12 | Cc1nc2c(Oc3cc(C(N)=O)ccc3C)cc(-c3c(C)noc3C)cc2[nH]1 [Example Compound 174, 3-((6-(3,5-dimethylisoxazol-4-yl)-2-methyl-1H-benzo[d]imidazol-4-yl)oxy)-4-methylbenzamide] | 300 to 3000 | 300 to 3000 | 300 to 3000 | ≤ 300
13 | Cc1nc2c(N3CCOCC3C)cc(-c3c(C)noc3C)cc2[nH]1 (stereo not shown) [Example Compound 177, 4-(6-(3,5-dimethyl-isoxazol-4-yl)-2-methyl-1H-benzo[d]imidazol-4-yl)-3-methyl morpholine] | ≤ 300 | 300 to 3000 | 300 to 3000 | ≤ 300
14 | Cc1n[nH]c(C)c1-c1cc(-c2c(C)noc2C)cc2[nH]nc(C)c12 [Example Compound 180, 4-(4-(3,5-dimethyl-1H-pyrazol-4-yl)-3-methyl-1H-indazol-6-yl)-3,5-dimethylisoxazole] | ≤ 300 | ≤ 300 | ≤ 300 | ≤ 300
15 | Cc1noc(C)c1-c1cc(-c2c(C)nn(C)c2C)c2c(c1)ncn2C [Example Compound 182, 3,5-dimethyl-4-(1-methyl-7-(1,3,5-trimethyl-1H-pyrazol-4-yl)-1H-benzo[d]imidazol-5-yl)isoxazole] | ≤ 300 | 300 to 3000 | ≤ 300 | ≤ 300
16 | Cc1ccncc1-c1cc(-c2c(C)noc2C)cc2[nH]c(NC3CCOCC3)nc12 [Example Compound 201, 6-(3,5-dimethyl-isoxazol-4-yl)-4-(4-methyl-pyridin-3-yl)-N-(tetra hydro-2H-pyran-4-yl)-1H-benzo[d] imidazol-2-amine] | ≤ 300 | ≤ 300 | ≤ 300 | ≤ 300
17 | Cc1noc(C)c1-c1cc(-c2cccc(C#N)c2C)c2nc(N3CCOCC3)[nH]c2c1 [Example Compound 203, 3-(6-(3,5-dimethyl-isoxazol-4-yl)-2-morpholino-1H-benzo[d]imidazol-4-yl)-2-methyl benzonitrile] | ≤ 300 | 300 to 3000 | ≤ 300 | ≤ 300
18 | Cc1noc(C)c1-c1cc(-c2cccc(C#N)c2C)c2nc(NC3CCOCC3)[nH]c2c1 [Example Compound 204, 3-(6-(3,5-dimethyl-isoxazol-4-yl)-2-((tetrahydro-2H-pyran-4-yl)amino)-1H-benzo[d]imidazol-4-yl)-2-methyl benzonitrile] | ≤ 300 | ≤ 300 | ≤ 300 | ≤ 300
19 | Cc1ccc(C#N)cc1-c1cc(-c2c(C)noc2C)cc2[nH]c(NC3CCN(C)CC3)nc12 [Example Compound 205, 3-(6-(3,5-dimethyl-isoxazol-4-yl)-2-((1-methyl-piperidin-4-yl)amino)-1H-benzo[d]imidazol-4-yl)-4-methyl benzonitrile] | ≤ 300 | 300 to 3000 | 300 to 3000 | ≤ 300
20 | Cc1noc(C)c1-c1cc(-c2cccc(C(N)=O)c2C)c2nc(N3CCN(C)CC3)[nH]c2c1 [Example Compound 206, 3-(6-(3,5-dimethyl-isoxazol-4-yl)-2-(4-methyl-piperazin-1-yl)-1H-benzo[d]imidazol-4-yl)-2-methyl benzamide] | 300 to 3000 | 300 to 3000 | 300 to 3000 | ≤ 300
21 | Cc1noc(C)c1-c1cc(-c2cccc(C(N)=O)c2C)c2nc(NC3CCOCC3)[nH]c2c1 [Example Compound 207, 3-(6-(3,5-dimethyl-isoxazol-4-yl)-2-((tetrahydro-2H-pyran-4-yl)amino)-1H-benzo[d]imidazol-4-yl)-2-methyl benzamide] | 300 to 3000 | 300 to 3000 | 300 to 3000 | ≤ 300
22 | Cc1noc(C)c1-c1cc(-c2cccc(C#N)c2C)c2nc(N3CCC(N)CC3)[nH]c2c1 [Example Compound 209, 3-(2-(4-amino-piperidin-1-yl)-6-(3,5-dimethyl-isoxazol-4-yl)-1H-benzo[d]imidazol-4-yl)-2-methyl benzonitrile] | 300 to 3000 | ≤ 300 | 300 to 3000 | ≤ 300
23 | Cc1ccc(C#N)cc1-c1cc(-c2c(C)noc2C)cc2[nH]c(NCc3ccccc3)nc12 [Example Compound 210, 3-(2-(benzylamino)-6-(3,5-dimethyl-isoxazol-4-yl)-1H-benzo[d]imidazol-4-yl)-4-methyl benzonitrile] | 300 to 3000 | ≤ 300 | 300 to 3000 | ≤ 300
24 | CNc1nc2c(-c3cnccc3C)cc(-c3c(C)noc3C)cc2[nH]1 [Example Compound 214, 6-(3,5-dimethyl-isoxazol-4-yl)-N-methyl-4-(4-methylpyridin-3-yl)-1H-benzo[d] imidazol-2-amine] | ≤ 300 | ≤ 300 | 300 to 3000 | ≤ 300
25 | Cc1noc(C)c1-c1cc(-c2cc(N)c(=O)n(C)c2)c2nc[nH]c2c1 [Example Compound 225, 3-amino-5-(6-(3,5-dimethylisoxazol-4-yl)-1H-benzo[d]imidazol-4-yl)-1-methyl-pyridin-2(1H)-one] | 300 to 3000 | 3000 to 30000 | 3000 to 30000 | 300 to 3000
